Laboratory results published in patent US11679107B2 (Eisai R&D Management Co., Ltd., priority 2018, dated 2023).
Where two headings read alike, the source gives them in different places.

Legend:
[1] = tested on: Ad2 variant pre-mRNAs spliced in HeLa S3 nuclear extracts; assay: In vitro splicing assay (IVS), RT-qPCR of spliced product; assay type: biochemical; conditions: for IC50: geometric mean; for Ratio Ad2.1/2.2: ratio of IVS IC50 Ad2.1 to Ad2.2
In short: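 Ad2 variant pre-mRNA (2 ng) with FTZΔi control RNA in HeLa S3 nuclear extract (8 μg) was pre-incubated with compound or DMSO for 15 min at 30 °C. Splicing ran 90 min at 30 °C after adding 0.5 mM ATP, creatine phosphate and MgCl2. Spliced product was quantified by TaqMan RT-qPCR, normalized to DMSO, and curve-fitted.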

[2] = tested on: NCI-H1568 cells (high MCL1); assay: Cell proliferation and viability, CellTiter-Glo, 72 hours; assay type: cell-based; conditions: for GI50: geometric mean
In short: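 Cells grown in RPMI-1640 with 10% FBS (Panc 05.04 with added insulin, 15% FBS total) were exposed to an 11-point half-log dilution, typically 10 μM–100 pM, at 0.1% DMSO for 72 h at 37 °C. ATP content was read by CellTiter-Glo luminescence. Percent inhibition was set against a time-zero plate and DMSO vehicle wells, on a −100% (cidal) to 100% (uninhibited growth) scale.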

SF3b complexes = biological target: T1, SF3b complexes (Homo sapiens, UniProt O75533+Q7RTV0); assay: Scintillation proximity assay (SPA) with [3H]-labelled pladienolide probe; assay type: binding; conditions: SF3B1 (WT); geometric mean; read-out: SPA-ATS GMean IC50 (nM) SF3B1 (WT)
T1 construct: endogenous in cells; host or cells: Nuclear extracts; A HeLa S3 extract preparation is described for the in vitro splicing assay
In short: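 SF3b complexes captured from nuclear extracts on anti-SF3B1 antibody SPA beads; test compounds pre-incubated 30 min before 2.5 nM [3H]-pladienolide probe added, then 30 min incubation. Bound probe read by scintillation; values from non-linear regression of concentration–response curves.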

[3] = Ad2.1 pre-mRNA substrate, read-out: qPCR-IVS-ATS GMean IC50 (nM) Ad2.1
[4] = Ad2.2 pre-mRNA substrate, read-out: qPCR-IVS-ATS GMean IC50 (nM) Ad2.2
[5] = 72 h, NCIH1568.1, -100% = cidal, 0% = static, 100% = uninhibited growth
[6] = NCI-H1568, read-out: CTGlo-ATS GMean GI50 (nM) 72 h NCIH1568.1, 72 h, NCIH1568.1
[7] = NCI-H1568, read-out: CTGlo-ATS GMean GI50 (nM) 72 h NCIH1568.1, NCIH1568.1 cells, 72 h
[8] = NCIH1568.1 cells, 72 h, −100% cidal, 0% static, 100% maximal growth
[9] = NCI-H1568, 72 h, read-out: CTGlo-ATS GMean GI50 (nM) 72 h NCIH1568.1, NCIH1568.1 cells, 72 h
[10] = NCI-H1568, 72 h, read-out: CTGlo-ATS GMean GI50 (nM) 72 h NCIH1568.1, 72 h, NCIH1568.1

Row | Compound | IC50 [1, 3] [nM] | IC50 [1, 4] [nM] | Ratio Ad2.1/2.2 [1] | CTGlo-ATS Mean MinResponse % 72 h NCIH1568.1 [2, 5] [%] | GI50 [2, 6] [nM] | IC50 (SF3b complexes) [nM] | GI50 [2, 7] [nM] | CTGlo-ATS Mean MinResponse % 72 h NCIH1568.1 [2, 8] [%] | GI50 [2, 9] [nM] | GI50 [2, 10] [nM]
1 | C/C(=C\c1cc(F)cc(N2CCN(C(=O)Cn3cccn3)CC2)c1)[C@H]1OC(=O)C[C@H](O)CC[C@H](C)[C@@H](OC(=O)N2CCNC(=O)C2)/C=C/[C@@H]1C [Compound 230, [(2S,3S,4E,6R,7S,10R)-2-[(E)-1-[3-fluoro-5-[4-(2-pyrazol-1-ylacetyl)piperazin-1-yl]phenyl]prop-1-en-2-yl]-10-hydroxy-3,7-dimethyl-12-oxo-1-oxacyclododec-4-en-6-yl] 3-oxopiperazine-1-carboxylate] | 11.7 | 10.9 | 1.078 | −69.108 | 15.9 | 12.9 |  |  |  | 
2 | COc1ccc(Cn2nnc3c(F)cc(/C=C(\C)[C@H]4OC(=O)C[C@H](O)CC[C@H](C)[C@@H](OC(=O)N5CCN(C)CC5)/C=C/[C@@H]4C)cc32)cc1 [Compound 166] | 1510 | 48.3 |  |  |  | 23.8 | 17.6 | −66.370 |  | 
3 | C/C(=C\c1cc(F)cc(N2CCN(C(=O)Cn3cccn3)CC2)c1)[C@H]1OC(=O)C[C@H](O)CC[C@H](C)[C@@H](OC(=O)N2CCN(C)C(C)(C)C2)/C=C/[C@@H]1C [Compound 232, [(2S,3S,4E,6R,7S,10R)-2-[(E)-1-[3-fluoro-5-[4-(2-pyrazol-1-ylacetyl)piperazin-1-yl]phenyl]prop-1-en-2-yl]-10-hydroxy-3,7-dimethyl-12-oxo-1-oxacyclododec-4-en-6-yl] 3,3,4-trimethylpiperazine-1-carboxylate] | 15.3 | 9.5 | 1.613 | −78.974 | 4.67 | 5.01 |  |  |  | 
4 | C/C(=C\c1cc(F)cc(N(C)C2CCN(S(=O)(=O)c3cn(C)cn3)CC2)c1)[C@H]1OC(=O)C[C@H](O)CC[C@H](C)[C@@H](OC(=O)N2CCN(C)CC2)/C=C/[C@@H]1C [Compound 184] | 18.1 | 11.6 |  |  |  | 14.4 | 59.8 | −85.535 |  | 
5 | CC(=O)N1CCC(CN(C)c2cc(F)cc(/C=C(\C)[C@H]3OC(=O)C[C@H](O)CC[C@H](C)[C@@H](OC(=O)N4CCN(C)CC4)/C=C/[C@@H]3C)c2)CC1 [Compound 186] | 41.8 | 17.4 |  |  |  | 12.6 |  | −70.969 | 14.5 | 
6 | C/C(=C\c1cc(F)cc(N2CCN(C(=O)C3(C)COC3)CC2)c1)[C@H]1OC(=O)C[C@H](O)CC[C@H](C)[C@@H](OC(=O)N2CCN(C)CC2)/C=C/[C@@H]1C [Compound 154] | 20 | 8.72 |  |  |  | 3.75 | 1.85 | −85.459 |  | 
7 | C/C(=C\c1cc(F)cc(N2CCN(C(=O)[C@@H](C)O)CC2)c1)[C@H]1OC(=O)C[C@H](O)CC[C@H](C)[C@@H](OC(=O)N2CCN(C)CC2)/C=C/[C@@H]1C [Compound 81] | 9.07 | 4.95 |  |  |  | 2.59 | 2.18 | −83.963 |  | 
8 | C/C(=C\c1cc(F)cc(N2CCN(C(=O)Cn3cccn3)CC2)c1)[C@H]1OC(=O)C[C@H](O)CC[C@H](C)[C@@H](OC(=O)NCc2ccncn2)/C=C/[C@@H]1C [Compound 222, [(2S,3S,4E,6R,7S,10R)-2-[(E)-1-[3-fluoro-5-[4-(2-pyrazol-1-ylacetyl)piperazin-1-yl]phenyl]prop-1-en-2-yl]-10-hydroxy-3,7-dimethyl-12-oxo-1-oxacyclododec-4-en-6-yl] N-(pyrimidin-4-ylmethyl)carbamate] | 116 | 53.2 | 2.179 | −58.410 |  | 23.6 |  |  |  | 69.4
9 | C/C(=C\c1cc(F)cc(N(C)C2CCN(S(=O)(=O)C3CCCC3)CC2)c1)[C@H]1OC(=O)C[C@H](O)CC[C@H](C)[C@@H](OC(=O)N2CCN(C)CC2)/C=C/[C@@H]1C [Compound 183] | 713 | 20.3 |  |  |  | 66.3 |  | −66.270 | 53.6 | 
10 | C/C(=C\c1cc(F)c2nnn([C@@H](C)CO)c2c1)[C@H]1OC(=O)C[C@H](O)CC[C@H](C)[C@@H](OC(=O)N2CCN(C)CC2)/C=C/[C@@H]1C [Compound 149] | 9.13 | 8.71 |  |  |  | 1.86 | 1.66 | −73.106 |  | 
11 | COCCn1nnc2c(F)cc(/C=C(\C)[C@H]3OC(=O)C[C@H](O)CC[C@H](C)[C@@H](OC(=O)N4CCN(C)CC4)/C=C/[C@@H]3C)cc21 [Compound 159] | 88.3 | 10.2 |  |  |  | 1.84 | 3.45 | −65.047 |  | 
12 | C/C(=C\c1cc(F)cc(N2CCN(CC(=O)O)CC2)c1)[C@H]1OC(=O)C[C@H](O)CC[C@H](C)[C@@H](OC(=O)N2CCNCC2)/C=C/[C@@H]1C [Compound 264] | 33.4 | 72.4 | 0.461 | −21.716 |  | 35.7 |  |  |  | 143
13 | C/C(=C\c1cc(F)c2cnn(C3CCC(F)(F)CC3)c2c1)[C@H]1OC(=O)C[C@H](O)CC[C@H](C)[C@@H](OC(=O)N2CCN(C)CC2)/C=C/[C@@H]1C [Compound 195] | 91.9 | 58.3 |  |  |  | 69.3 | 6.59 | −95.559 |  | 
14 | C/C(=C\c1cc(F)cc(N2CCN(CCCO)CC2)c1)[C@H]1OC(=O)C[C@H](O)CC[C@H](C)[C@@H](OC(=O)N2CCN(C)CC2)/C=C/[C@@H]1C [Compound 136] | 8.64 | 14.5 |  |  |  | 8.11 |  | −90.722 | 7.17 | 
15 | C/C(=C\c1cc(F)cc(N2CCN(C(=O)Cn3cccn3)CC2)c1)[C@H]1OC(=O)C[C@H](O)CC[C@H](C)[C@@H](OC(=O)N2CCN(CCO)CC2)/C=C/[C@@H]1C [Compound 234, [(2S,3S,4E,6R,7S,10R)-2-[(E)-1-[3-fluoro-5-[4-(2-pyrazol-1-ylacetyl)piperazin-1-yl]phenyl]prop-1-en-2-yl]-10-hydroxy-3,7-dimethyl-12-oxo-1-oxacyclododec-4-en-6-yl] 4-(2-hydroxyethyl)piperazine-1-carboxylate] | 13.1 | 16.5 | 0.793 | −81.384 | 5.2 | 3.16 |  |  |  | 
16 | C/C(=C\c1cc(F)cc(N2CCN(C(=O)Cn3cccn3)CC2)c1)[C@H]1OC(=O)C[C@H](O)CC[C@H](C)[C@@H](OC(=O)N2CCN(C3CCCCC3)CC2)/C=C/[C@@H]1C [Compound 238, [(2S,3S,4E,6R,7S,10R)-2-[(E)-1-[3-fluoro-5-[4-(2-pyrazol-1-ylacetyl)piperazin-1-yl]phenyl]prop-1-en-2-yl]-10-hydroxy-3,7-dimethyl-12-oxo-1-oxacyclododec-4-en-6-yl] 4-cyclohexylpiperazine-1-carboxylate] | 32.2 | 68.1 | 0.473 | −88.447 |  | 18.1 |  |  |  | 5.79
17 | CCCNC(=O)N1CCC(N(C)c2cc(F)cc(/C=C(\C)[C@H]3OC(=O)C[C@H](O)CC[C@H](C)[C@@H](OC(=O)N4CCN(C)CC4)/C=C/[C@@H]3C)c2)CC1 [Compound 192] | 14.1 | 10.3 |  |  |  | 3.85 |  | −75.900 | 7.49 | 
18 | C/C(=C\c1cc(F)cc(N(C)C2CCN(C(=O)c3ccccc3)CC2)c1)[C@H]1OC(=O)C[C@H](O)CC[C@H](C)[C@@H](OC(=O)N2CCN(C)CC2)/C=C/[C@@H]1C [Compound 180] | 29.9 | 24.6 |  |  |  | 42.3 | 14.4 | −86.471 |  | 
19 | CCC(=O)N1CCC(N(C)c2cc(F)cc(/C=C(\C)[C@H]3OC(=O)C[C@H](O)CC[C@H](C)[C@@H](OC(=O)N4CCN(C)CC4)/C=C/[C@@H]3C)c2)CC1 [Compound 178] | 20.4 | 4.31 |  |  |  | 2.16 | 6.85 | −77.714 |  | 
